Legend:
johnsongrass = test: Test C preemergence; assay type: in vivo, Sorghum halepense
In short: (§1)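 Greenhouse herbicide screen. Pre: seeded loam/sand, sprayed at planting. Post: 1–4 leaf plants (2–18 cm) in peat-based mix. Formulation: solvent mixture + surfactant, non-phytotoxic. Readout: visual % control vs untreated, 13–15 d; dash = not tested.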

blackgrass = test: Test A postemergence; assay type: in vivo, Alopecurus myosuroides
In short: (§2)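 Pre- and postemergence greenhouse screen. Soil: loam + sand. Spray carrier: solvent mixture, non-phytotoxic, with surfactant. Post timing at 1–2 leaves, height 2–10 cm. Readout: visual injury on a 0–100 scale roughly 10 days after application, untreated plants as reference.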

sedge, umbrella = test: Test B flooded paddy test; assay type: in vivo, Cyperus difformis; conditions: Flood, 250 g ai/ha, 0 to 100 scale where 0 is no effect and 100 is complete control
In short: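 Visual ratings on a 0 to 100 scale, where 100 means complete control, compared treated plants with controls after 13 to 15 days in a greenhouse. Treatment went into paddy water 3 cm deep over the soil, applied to plants at the 2-leaf stage.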

oilseed rape = test: Test C preemergence; assay type: in vivo, Brassica napus
Description: Seeds of plant species selected from blackgrass (Alopecurus myosuroides), Italian ryegrass (Lolium multiflorum), wheat, winter (winter wheat, Triticum aestivum), galium (catchweed bedstraw, Galium aparine), corn (Zea mays), large (Lg) crabgrass (Digitaria sanguinalis), giant foxtail (Setaria faberii), johnsongrass (Sorghum halepense), lambsquarters (Chenopodium album), morningglory (Ipomoea coccinea), yellow nutsedge (Cyperus esculentus), pigweed (Amaranthus retroflexus), ragweed (common ragweed, Ambrosia elatior), soybean (Glycine max), barnyardgrass (Echinochloa crus-galli), oilseed rape (Brassica napus), waterhemp (common waterhemp, Amaranthus rudis), kochia (Kochia scoparia), wild oat (Avena fatua), surinam grass (Brachiaria decumbens), foxtail, green (green foxtail, Setaria viridis), goosegrass (Eleusine indica), bromegrass, downy (downy bromegrass, Bromus tectorum), nightshade (eastern black nightshade, Solanum ptycanthum), cocklebur (common cocklebur, Xanthium strumarium), cupgrass, woolly (woolly cupgrass, Eriochloa villosa), bermudagrass (Cynodon dactylon), sunflower, (common oilseed sunflower, Helianthus annuus), Russian thistle (Salsola kali), and velvetleaf (Abutilon theophrasti) were planted into a blend of loam soil and sand and treated preemergence with test chemicals formulated in a non-phytotoxic solvent mixture which included a surfactant.
At the same time, plants selected from these crop and weed species and also barley, winter (winter barley, Hordeum vulgare), windgrass (Apera spica-venti), chickweed (common chickweed, Stellaria media), deadnettle (henbit deadnettle, Lamium amplexicaule), and canarygrass (littleseed canarygrass, Phalaris minor) were planted in pots containing Redi-Earth® planting medium (Scotts Company, 14111 Scottslawn Road, Marysville, Ohio 43041) comprising spaghnum peat moss, vermiculite, wetting agent and starter nutrients and treated with postemergence applications of test chemicals formulated in the same manner. Plants ranged in height from 2 to 18 cm (1- to 4-leaf stage) for postemergence treatments. Treated plants and controls were maintained in a greenhouse for 13 to 15 days, after which time all species were compared to controls and visually evaluated. Plant response ratings, summarized in Table C, are based on a scale of 0 to 100 where 0 is no effect and 100 is complete control. A dash (-) response means no test result.

soybean = test: Test C preemergence; assay type: in vivo, Glycine max
In short: as §1

barnyardgrass = test: Test A postemergence; assay type: in vivo, Echinochloa crus-galli
In short: as §2

waterhemp = test: Test C preemergence; assay type: in vivo, Amaranthus rudis
In short: as §1

velvetleaf = test: Test A preemergence; assay type: in vivo, Abutilon theophrasti; conditions: for Velvetleaf plant response rating (0 to 100 scale): 125 g ai/ha; for Velvetleaf plant response rating: 500 g ai/ha, 0 to 100 scale where 0 is no effect and 100 is complete control
In short: as §2

[1] = 16 g ai/ha, preemergence, scale 0 to 100 (0 no effect, 100 complete control)
[2] = 62 g ai/ha, preemergence, scale 0 (no effect) to 100 (complete control)
[3] = 125 g ai/ha, preemergence, scale 0 (no effect) to 100 (complete control)
[4] = Preemergence, 31 g ai/ha, scale 0 to 100, 0 no effect, 100 complete control
[5] = 31 g ai/ha, 0 to 100 scale, 0 no effect, 100 complete control
[6] = 125 g ai/ha, 0 to 100 scale where 0 is no effect and 100 is complete control
[7] = 500 g ai/ha, 0 to 100 scale where 0 is no effect and 100 is complete control
[8] = Preemergence, 62 g ai/ha, scale 0 to 100, 0 no effect, 100 complete control
[9] = 125 g ai/ha, 0 to 100 scale, 0 no effect, 100 complete control

Row | Structure (SMILES) | Johnsongrass plant response rating (johnsongrass; [1]) | Johnsongrass plant response rating (johnsongrass; [2]) | Johnsongrass plant response rating (johnsongrass; [3]) | Plant response rating, Blackgrass (blackgrass; [5]) | Plant response rating, Sedge, Umbrella (sedge, umbrella) | Oilseed Rape plant response rating (oilseed rape; [1]) | Oilseed Rape plant response rating (oilseed rape; [2]) | Oilseed Rape plant response rating (oilseed rape; [3]) | Soybean plant response rating (soybean; [1]) | Soybean plant response rating (soybean; [2]) | Soybean plant response rating (soybean; [3]) | Plant response rating, Barnyardgrass (barnyardgrass; [5]) | Waterhemp plant response rating (waterhemp; [1]) | Waterhemp plant response rating (waterhemp; [2]) | Waterhemp plant response rating (waterhemp; [3]) | Barnyardgrass plant response rating (barnyardgrass; [6]) | Plant response rating, Barnyardgrass (barnyardgrass; [7]) | other results
1 | FCc1cccc(Oc2ncc(F)cn2)c1-n1cc(C(F)(F)F)cn1 [Compound 118] | 0 | 85 | 100 | 60 | 95 | 98 | 100 | 100 | 60 | 90 | 95 | 30 | 85 | 100 | 100 |  |  | Plant response rating, Johnsongrass (johnsongrass; [4]): 25; Plant response rating, Blackgrass (blackgrass; [6]): 90; Plant response rating, Oilseed Rape (oilseed rape; [4]): 100; Plant response rating, Soybean (soybean; [4]): 75; Plant response rating, Barnyardgrass (barnyardgrass; [6]): 80; Plant response rating, Waterhemp (waterhemp; [4]): 100
2 | COc1cnn(-c2c(C#N)cccc2Oc2ncc(Cl)cn2)c1 [Compound 137] | 0 | 5 | 45 |  | 0 | 50 | 85 | 95 | 10 | 80 | 85 |  | 100 | 95 | 100 | 0 | 100 | Blackgrass plant response rating (blackgrass; [6]): 20; Plant response rating, Blackgrass (blackgrass; [7]): 90
3 | N#Cc1cnn(-c2c(CF)cccc2Oc2ncc(F)cn2)c1 [Compound 151] | 0 | 50 | 65 | 20 | 0 | 95 | 100 | 100 | 35 | 85 | 95 | 0 | 95 | 100 | 100 | 60 |  | Blackgrass plant response rating (blackgrass; [6]): 50
4 | Fc1cccc(Oc2ncc(Cl)cn2)c1-n1cc(I)cn1 [Compound 179] | 0 | 65 | 98 |  | 85 | 60 | 98 | 100 | 0 | 45 | 65 |  | 90 | 98 | 100 | 80 | 100 | Velvetleaf plant response rating (0 to 100 scale) (velvetleaf): 60; Velvetleaf plant response rating (velvetleaf): 80
5 | CCOc1cnn(-c2ccccc2Oc2ncc(Cl)cn2)c1 [Compound 187] | 0 |  | 45 |  | 50 | 70 |  | 90 | 5 |  | 85 |  | 25 |  | 95 | 80 | 90 | Velvetleaf plant response rating (0 to 100 scale) (velvetleaf): 80; Velvetleaf plant response rating (velvetleaf): 100; Plant response rating, Johnsongrass (johnsongrass; [8]): 30; Plant response rating, Oilseed Rape (oilseed rape; [8]): 90; Plant response rating, Soybean (soybean; [8]): 55; Plant response rating, Waterhemp (waterhemp; [8]): 85
6 | FCc1cccc(Oc2ncc(Cl)cn2)c1-n1cc(Cl)cn1 [Compound 250] | 0 |  | 70 | 70 | 35 | 100 |  | 100 |  |  | 90 | 10 | 85 |  | 100 |  |  | Plant response rating, Johnsongrass (johnsongrass; [8]): 35; Plant response rating, Blackgrass (blackgrass; [9]): 100; Plant response rating, Oilseed Rape (oilseed rape; [8]): 100; Plant response rating, Soybean (soybean; [8]): 65; Plant response rating, Barnyardgrass (barnyardgrass; [9]): 60; Plant response rating, Waterhemp (waterhemp; [8]): 100
7 | N#Cc1cccc(Oc2ncc(Cl)cn2)c1-n1cnc(C(F)(F)F)c1 [Compound 252, 3-[(5-chloro-2-pyrimidinyl)oxy]-2-[4-(trifluoromethyl)-1H-imidazol-1-yl]benzonitrile] |  |  |  | 10 |  |  |  |  |  |  |  |  |  |  |  |  |  | pest or weed control at 16 g/ha (johnsongrass; Sorghum halepense, pre-emergence, 16 g ai/ha, preemergence, scale 0 to 100 (0 no effect, 100 complete control), read-out: Johnsongrass plant response rating): 5%; pest or weed control at 125 g/ha (johnsongrass; Sorghum halepense, pre-emergence, 125 g ai/ha, preemergence, scale 0 (no effect) to 100 (complete control), read-out: Johnsongrass plant response rating): 100%; pest or weed control at 62 g/ha (johnsongrass; Sorghum halepense, pre-emergence, Preemergence, 62 g ai/ha, scale 0 to 100, 0 no effect, 100 complete control, read-out: Plant response rating, Johnsongrass): 80%; Plant response rating, Blackgrass (blackgrass; [9]): 60; Plant response rating, Blackgrass (blackgrass; [7]): 100; pest or weed control at 250 g/ha (sedge, umbrella; Cyperus difformis, read-out: Plant response rating, Sedge, Umbrella): 80%; plant injury at 16 g/ha (oilseed rape; Brassica napus, pre-emergence, 16 g ai/ha, preemergence, scale 0 to 100 (0 no effect, 100 complete control), read-out: Oilseed Rape plant response rating): 80%; plant injury at 125 g/ha (oilseed rape; Brassica napus, pre-emergence, 125 g ai/ha, preemergence, scale 0 (no effect) to 100 (complete control), read-out: Oilseed Rape plant response rating): 100%; plant injury at 62 g/ha (oilseed rape; Brassica napus, pre-emergence, Preemergence, 62 g ai/ha, scale 0 to 100, 0 no effect, 100 complete control, read-out: Plant response rating, Oilseed Rape): 100%; plant injury at 16 g/ha (soybean; Glycine max, pre-emergence, 16 g ai/ha, preemergence, scale 0 to 100 (0 no effect, 100 complete control), read-out: Soybean plant response rating): 65%; plant injury at 125 g/ha (soybean; Glycine max, pre-emergence, 125 g ai/ha, preemergence, scale 0 (no effect) to 100 (complete control), read-out: Soybean plant response rating): 98%; plant injury at 62 g/ha (soybean; Glycine max, pre-emergence, Preemergence, 62 g ai/ha, scale 0 to 100, 0 no effect, 100 complete control, read-out: Plant response rating, Soybean): 95%; pest or weed control at 31 g/ha (barnyardgrass; Echinochloa crus-galli, post-emergence, 240 h, 31 g ai/ha, 0 to 100 scale, 0 no effect, 100 complete control, read-out: Plant response rating, Barnyardgrass): 20%; pest or weed control at 125 g/ha (barnyardgrass; Echinochloa crus-galli, post-emergence, 240 h, 125 g ai/ha, 0 to 100 scale, 0 no effect, 100 complete control, read-out: Plant response rating, Barnyardgrass): 100%; pest or weed control at 500 g/ha (barnyardgrass; Echinochloa crus-galli, post-emergence, 240 h, 500 g ai/ha, 0 to 100 scale where 0 is no effect and 100 is complete control, read-out: Plant response rating, Barnyardgrass): 100%; pest or weed control at 16 g/ha (waterhemp; Amaranthus tuberculatus, pre-emergence, 16 g ai/ha, preemergence, scale 0 to 100 (0 no effect, 100 complete control), read-out: Waterhemp plant response rating): 100%; pest or weed control at 125 g/ha (waterhemp; Amaranthus tuberculatus, pre-emergence, 125 g ai/ha, preemergence, scale 0 (no effect) to 100 (complete control), read-out: Waterhemp plant response rating): 100%; pest or weed control at 62 g/ha (waterhemp; Amaranthus tuberculatus, pre-emergence, Preemergence, 62 g ai/ha, scale 0 to 100, 0 no effect, 100 complete control, read-out: Plant response rating, Waterhemp): 100%

— patent US9695155B2, “Herbicidal substituted pyrimidinyloxy benzene compounds” (E. I. DU PONT DE NEMOURS AND COMPANY, priority 2013, dated 2017)
